Experimental data from PMC12584665, “In vitro and in vivo efficacy of vancomycin against Elizabethkingia species and the impact of increased vancomycin MICs” (Microbiology Spectrum, 2025).
Values after ≈ are worked out from the molar mass of the structure shown. Where two headings read alike, the source gives them in different places.

Key:
[1] = system: Elizabethkingia anophelis; assay: Broth microdilution (BMD) MIC; format: cell-based; details: for MIC: Elizabethkingia anophelis; for susceptibility category: all susceptibility tests, CLSI criteria for Enterococcus spp. (susceptible MIC <= 4 mg/L, zone >= 17 mm)
Text: (§1) Eighteen E. anophelis clinical isolates from the nationwide surveillance program (Taiwan Surveillance of Antimicrobial Resistance) were well characterized in our previous study ([7]) and were selected for susceptibility testing and minimum bactericidal concentration (MBC) assays. Among them, five isolates with different clonality (underlined strains in Fig. S1) were selected for the time-kill assays and in vivo experiments.
(§2) Broth microdilution, disc diffusion, Etest, and agar dilution assays were conducted following CLSI guidelines to determine vancomycin MICs ([8]). […] Criteria for Staphylococcus spp. were not adopted due to the lack of a zone diameter breakpoint. MBCs were determined following CLSI guidelines ([8]).

[2] = system: Elizabethkingia anophelis; assay: Disc diffusion (DD) zone diameter; format: cell-based
Text: as §1, §2

[3] = system: Elizabethkingia anophelis; assay: Time-kill assay; format: cell-based; details: triplicate; for growth in time-kill assay: five clinical isolates, MH broth, ~5 x 10^5 CFU/mL, 37°C
Method: Time-kill assays were performed as previously described with modifications ([10]). Each 250 mL flask containing 30 mL MH broth (Becton Dickinson, Franklin Lakes, NJ, USA) was inoculated to achieve an initial bacterial density of ~5 × 10⁵ CFU/mL. Cultures were incubated at 37°C with shaking at 200 rpm. Vancomycin or teicoplanin (Sigma-Aldrich, Saint Louis, MO, USA) was added at final concentrations of 4 or 16 mg/L. At designated time points, 100 µL of samples was removed, serially diluted in sterile saline, and plated on MH agar for CFU enumeration after overnight incubation at 37°C. No washing steps were performed prior to plating; given the culture volume and dilution scheme, antibiotic carryover was expected to be negligible. All experiments were performed in triplicate.

[4] = system: Elizabethkingia anophelis; assay: Galleria mellonella (wax moth) infection survival model; format: in vivo
Method: (§3) In vivo efficacy was assessed by wax moth (Galleria mellonella), murine pneumonia, and murine thigh infection models following the protocols of our previous study ([2]). The Animal Ethics Committee of Taiwan’s National Health Research Institutes approved the murine pneumonia and thigh infection models.
G. mellonella was reared at the National Health Research Institutes of Taiwan. Caterpillars in the final instar larval stage (weight ca. 250 mg) were used. […] A 10 µL aliquot of E. anophelis at the predetermined lethal dose was injected into the hemocoel of each caterpillar via the last left proleg. Antibiotics were administered once into another proleg at the indicated time points; vancomycin (5, 10, or 20 mg/kg, 2 h post-inoculation); other glycopeptides (teicoplanin, 10 mg/kg, 30 min post-inoculation; dalbavancin, 8.75 mg/kg, 2 h post-inoculation; oritavancin, 15 mg/kg, 1 h post-inoculation) ([11][–][13]); or daptomycin (10 mg/kg, 2 h post-inoculation) ([13]). Each treatment group contained 6–8 caterpillars. A control group injected with sterile PBS was included to monitor for trauma-related mortality. Caterpillars were incubated at 37°C, and survival was recorded twice daily for 72 h.

[5] = system: Elizabethkingia anophelis; assay: Murine neutropenic thigh infection model; format: in vivo, C57BL/6J mice
Method: as §3
For the thigh infection model, seven-week-old C57BL/6J mice were rendered neutropenic by intraperitoneal injections of cyclophosphamide (Cytoxan; Bristol-Myers Squibb, Princeton, NJ, USA) 4 days (150 mg/kg) and 1 day (100 mg/kg) before bacterial inoculation. A 30 µL aliquot containing the E. anophelis (10^7 cfu) was injected into each of the two rear thighs. Vancomycin (25 mg/kg or 100 mg/kg, subcutaneous) or teicoplanin (50 mg/kg, intraperitoneal) was administered 2 h and 14 h after inoculation. Mice were sacrificed 24 h post-inoculation, and homogenized thigh tissue was plated in serial 10-fold dilutions on brain-heart infusion agar to determine bacterial counts. Each mouse, not each thigh, was considered an individual data point.

[6] = Serum drug levels in mice (LC-MS/MS); format: in vivo; details: single dose 25 mg/kg subcutaneous, mice, LC-MS/MS; in contrast to 100 mg/kg; 6 to 8 mice per group
Method: Fifty microliters of aliquots of murine serum was mixed with 100 µL acetonitrile. The mixture was vortexed and then centrifuged at 15,000 × g for 20 min in a Beckman Coulter Microfuge 22R Centrifuge at room temperature. The supernatant was transferred to a clean tube, and then 15 µL of the supernatant was injected onto LC-MS/MS. The chromatographic system consisted of an Agilent 1200 series LC system and an Agilent ZORBAX Eclipse XDB-C8 column (5 µm, 3.0 × 150 mm) interfaced to an MDS Sciex API3000 tandem mass spectrometer. The MS/MS ion transitions monitored were m/z 725/144 for vancomycin. A gradient HPLC method was employed for separation. Mobile phase A consisted of 10 mM ammonium acetate aqueous solution containing 0.1% formic acid and mobile phase B consisted of acetonitrile. The gradient profile was as follows (min/%B): 0.0–0.9/5, 1.0–2.0/50, 2.1–3.7/95, 3.8–5.0/5. The flow rate was set at 1.5 mL/min.

Q: For `CN[C@H](CC(C)C)C(=O)N[C@H]1C(=O)N[C@@H](CC(N)=O)C(=O)N[C@H]2C(=O)N[C@H]3C(=O)N[C@H](C(=O)N[C@H](C(=O)O)c4cc(O)cc(O)c4-c4cc3ccc4O)[C@H](O)c3ccc(c(Cl)c3)Oc3cc2cc(c3O[C@@H]2O[C@H](CO)[C@@H](O)[C@H](O)[C@H]2O[C@H]2C[C@](C)(N)[C@H](O)[C@H](C)O2)Oc2ccc(cc2Cl)[C@H]1O` [Vancomycin], which “MICs, range over isolates” value ([1]; 18 E. anophelis isolates, broth microdilution, concordant with agar dilution and Etest) is on record?
A: 16 to 32 mg/L

Q: What about the MIC ([1]; read-out: MIC, BMD, E. anophelis clinical isolate 2008N05-106) of the same molecule?
A: 32 µg/mL (≈ 22.1 µM)

Q: What about the MIC ([1]; read-out: MIC, BMD, E. anophelis clinical isolate 2008S01-229) of the same molecule?
A: 32 µg/mL (≈ 22.1 µM)

Q: And the MIC ([1]; read-out: MIC, BMD, E. anophelis clinical isolate 2014C06-157)?
A: 32 µg/mL (≈ 22.1 µM)

Q: What about the MIC ([1]; read-out: MIC, BMD, E. anophelis clinical isolate 2016N17-576) of the same molecule?
A: 32 µg/mL (≈ 22.1 µM)

Q: And the MIC ([1]; read-out: MIC, BMD, E. anophelis clinical isolate 2018C04-213)?
A: 16 µg/mL (≈ 11 µM)

Q: And the MIC ([1]; read-out: MIC, BMD, E. anophelis clinical isolate 2018C04-224)?
A: 16 µg/mL (≈ 11 µM)

Q: And the MIC ([1]; read-out: MIC, BMD, E. anophelis clinical isolate 2018C07-210)?
A: 16 µg/mL (≈ 11 µM)

Q: And the MIC ([1]; read-out: MIC, BMD, E. anophelis clinical isolate 2018C07-234)?
A: 16 µg/mL (≈ 11 µM)

Q: And the MIC ([1]; read-out: MIC, BMD, E. anophelis clinical isolate 2018C08-127)?
A: 16 µg/mL (≈ 11 µM)

Q: And the MIC ([1]; read-out: MIC, BMD, E. anophelis clinical isolate 2018E03-151)?
A: 16 µg/mL (≈ 11 µM)

Q: What about the MIC ([1]; read-out: MIC, BMD, E. anophelis clinical isolate 2018E04-135) of the same molecule?
A: 16 µg/mL (≈ 11 µM)

Q: And the MIC ([1]; read-out: MIC, BMD, E. anophelis clinical isolate 2018N16-057)?
A: 16 µg/mL (≈ 11 µM)

Q: And the MIC ([1]; read-out: MIC, BMD, E. anophelis clinical isolate 2018N17-036)?
A: 32 µg/mL (≈ 22.1 µM)

Q: What about the MIC ([1]; read-out: MIC, BMD, E. anophelis clinical isolate 2018N17-073) of the same molecule?
A: 16 µg/mL (≈ 11 µM)

Q: What about the MIC ([1]; read-out: MIC, BMD, E. anophelis clinical isolate 2018N17-153) of the same molecule?
A: 16 µg/mL (≈ 11 µM)

Q: What about the MIC ([1]; read-out: MIC, BMD, E. anophelis clinical isolate 2018N21-226) of the same molecule?
A: 16 µg/mL (≈ 11 µM)

Q: What about the MIC ([1]; read-out: MIC, BMD, E. anophelis clinical isolate 2018S09-023) of the same molecule?
A: 16 µg/mL (≈ 11 µM)

Q: And the MIC ([1]; read-out: MIC, BMD, E. anophelis clinical isolate 2018S11-172)?
A: 32 µg/mL (≈ 22.1 µM)

Q: And the MIC ([1]; read-out: MICs as summarised in the discussion, E. anophelis, isolates not specified)?
A: 32 µg/mL (≈ 22.1 µM)

Q: What about the susceptibility category [1] of the same molecule?
A: non-susceptible

Q: And the susceptibility category ([1]; listed as vancomycin)?
A: resistant

Q: What about the “zone diameters, all isolates” value ([2]; 18 E. anophelis isolates, disc diffusion, susceptibility breakpoint >= 17 mm (Enterococcus spp.)) of the same molecule?
A: < 17 mm

Q: And the DD zone diameter ([2]; E. anophelis clinical isolate 2008N05-106)?
A: 15 mm

Q: What about the DD zone diameter ([2]; E. anophelis clinical isolate 2008S01-229) of the same molecule?
A: 15 mm

Q: What about the DD zone diameter ([2]; E. anophelis clinical isolate 2014C06-157) of the same molecule?
A: 15 mm

Q: And the DD zone diameter ([2]; E. anophelis clinical isolate 2016N17-576)?
A: 15 mm

Q: And the DD zone diameter ([2]; E. anophelis clinical isolate 2018C04-213)?
A: 15 mm

Q: What about the DD zone diameter ([2]; E. anophelis clinical isolate 2018C04-224) of the same molecule?
A: 15 mm

Q: And the DD zone diameter ([2]; E. anophelis clinical isolate 2018C07-210)?
A: 14 mm

Q: What about the DD zone diameter ([2]; E. anophelis clinical isolate 2018C07-234) of the same molecule?
A: 15 mm

Q: What about the DD zone diameter ([2]; E. anophelis clinical isolate 2018C08-127) of the same molecule?
A: 14 mm

Q: What about the DD zone diameter ([2]; E. anophelis clinical isolate 2018E03-151) of the same molecule?
A: 14 mm

Q: What about the DD zone diameter ([2]; E. anophelis clinical isolate 2018E04-135) of the same molecule?
A: 14 mm

Q: What about the DD zone diameter ([2]; E. anophelis clinical isolate 2018N16-057) of the same molecule?
A: 15 mm

Q: What about the DD zone diameter ([2]; E. anophelis clinical isolate 2018N17-036) of the same molecule?
A: 15 mm

Q: And the DD zone diameter ([2]; E. anophelis clinical isolate 2018N17-073)?
A: 14 mm

Q: What about the DD zone diameter ([2]; E. anophelis clinical isolate 2018N17-153) of the same molecule?
A: 14 mm

Q: And the DD zone diameter ([2]; E. anophelis clinical isolate 2018N21-226)?
A: 13 mm

Q: And the DD zone diameter ([2]; E. anophelis clinical isolate 2018S09-023)?
A: 15 mm

Q: What about the DD zone diameter ([2]; E. anophelis clinical isolate 2018S11-172) of the same molecule?
A: 13 mm

Q: What about the “growth in time-kill assay” value ([3]; 4 mg/L) of the same molecule?
A: did not inhibit the growth

Q: And the “growth in time-kill assay” value ([3]; 16 mg/L)?
A: Growth was inhibited at a higher level (16 mg/L) at 6 h but increased thereafter

Q: And the time-kill assay ([3]; 4 or 16 mg/L, mutant 2008S01-229-VAN-R)?
A: no effect

Q: What about the “survival of infected wax moths” value ([4]; 10 mg/kg once, 2 h post-inoculation, five E. anophelis isolates, 72 h, 37°C, 6-8 caterpillars per group) of the same molecule?
A: improved the survival

Q: And the “improvement of larval survival” value ([4]; 10 mg/kg, infection by 2008S01-229-VAN-R compared to 2008S01-229)?
A: hampered

Q: And the “dose dependence of survival of infected wax moths” value ([4]; 5, 10 and 20 mg/kg once, 2 h post-inoculation, two clinical isolates)?
A: dose-dependent effect

Q: What about the “bacterial loads in thigh” value ([5]; 25 mg/kg subcutaneous 2 h and 14 h after inoculation, neutropenic mice, 24 h, all clinical strains, 4 mice per group) of the same molecule?
A: modestly reduced the bacterial loads

Q: What about the “bacterial load in thigh” value ([5]; 100 mg/kg subcutaneous 2 h and 14 h after inoculation, neutropenic mice, 24 h, compared with 25 mg/kg) of the same molecule?
A: greater reduction of bacterial load

Q: And the “reduction of bacterial load” value ([5]; 100 mg/kg twice daily, infection by 2008S01-229-VAN-R compared to 2008S01-229)?
A: hampered

Q: What about the serum concentration-time profile [6] of the same molecule?
A: resembled that of humans
